In patent US9216997B2, “Tri-heterocyclic derivatives, preparation process and uses thereof” (SHANGHAI DE NOVO PHARMATECH CO LTD., priority 2011, dated 2015):
Read-outs that look alike come from different tables or passages of the source.

Key:
MV4-11 cell = MV4-11 cell proliferation assay (CellTiter-Glo); assay type: cell-based, human; conditions: MV4-11 cells, 72 hours, read-out: IC50 inhibiting MV4-11 cell proliferation
Description: Test compounds were prepared in 100% DMSO and added to the cells to achieve final concentrations from 0.2 uM to […] (10 concentration points in 3 fold serial dilution). The culture plates were then incubated at 37 C in 5% CO2 for 72 hours.
After 72 hours, the cell morphology was observed under an inverted microscope. Cell viability was then quantified at room temp using a CellTiter-Glo assay (Promega G7571) following the manufacture's instruction. Briefly, a volume of 100 ul Celltiter-Glo reagenet was added to each well to induce cell lysis. After 10 min incubation at RT, a luminescent signal was produced by measuring the amount of ATP. The signal was directly proportional to the number of viable cells present in culture.

[1] = tested on: MV4-11 acute myeloid leukemia zenograft tumor model; experiment: MV4-11 acute myeloid leukemia xenograft tumor model; assay type: in vivo, NOD/SCID female mice; conditions: 3 mg/kg, po, qd, 22 days; tumor-bearing NOD/SCID mice
Description: Compound C (18 mg) in 22% 2-hydroxypropyl-β=cyclodextrin (60 ml), ultrasonic 15 min to dissolve, an average of 2.14 ml divided into each of the small bottle, reserved 22 bottles for experiment.
6-8 weeks NOD/SCID female mice (18-25 g) were used. Each mouse was inoculated subcutaneously at the right flank with MV4-11 tumor cells (1×10^7) in 0.1 ml of PBS/Matrigel (1:1) for tumor development. The treatments were started when the mean tumor size reached 188 mm^3. The animals were separated even as test and control group randomly, and each group is consisted of 6 tumor-bearing mice. The test articles were orally administered (2.14 ml) to the tumor-bearing mice once a day. The date of tumor cell inoculation is denoted as day 0. The tumor volume was measured every four days, and the animals were scarified at 22 days. Statistical analyses of difference in tumor volume among the groups were evaluated using a one-way ANOVA followed by individual comparisons using Games-Howell (equal variance not assumed).
All data were analyzed using SPSS 17.0. p<0.05 was considered to be statistically significant. The antitumor activities of compounds of disclose are calculated by the formula: T C %=TRTV/CRTV×100%. (TRTV: drug treated group RTV; CRTV: vehicle treated group RTV). Evaluation standard: T/C (%)>40% considered as not effective; T/C (%) 40% considered as effective with P<0.05.

FLT3 = FLT3 (Homo sapiens (Human), UniProt P36888); experiment: FLT3 kinase inhibition assay (Caliper mobility shift assay); assay type: biochemical; conditions: 0.9 nM purified FLT3, 97 uM ATP, 28° C., 60 min; read-out: IC50 inhibiting the FLT3 kinase
Description: The average of inhibitory rate of Flt3 kinase and IC50 was determined by a Caliper's mobility shift assay (MSA).
FLT3 is a receptor tyrosine kinase involved in survival and proliferation of leukemic cells. Constitutively activating FLT3 mutations has been found in about 30% of all patients with acute myeloid leukemia (AML). The tested compounds were screened for their ability to inhibit FLT3 kinase activity using Caliper's mobility shift assay (MSA). The assay uses a microfluidic chip to measure the conversion of a fluorescent peptide substrate to a phosphorylated product following separation by electrophoresis.
Data were collected on Caliper and converted into inhibition values. IC50 values were obtained using XLfit graphic program.

Chain of FLT3 (P36888 27-993): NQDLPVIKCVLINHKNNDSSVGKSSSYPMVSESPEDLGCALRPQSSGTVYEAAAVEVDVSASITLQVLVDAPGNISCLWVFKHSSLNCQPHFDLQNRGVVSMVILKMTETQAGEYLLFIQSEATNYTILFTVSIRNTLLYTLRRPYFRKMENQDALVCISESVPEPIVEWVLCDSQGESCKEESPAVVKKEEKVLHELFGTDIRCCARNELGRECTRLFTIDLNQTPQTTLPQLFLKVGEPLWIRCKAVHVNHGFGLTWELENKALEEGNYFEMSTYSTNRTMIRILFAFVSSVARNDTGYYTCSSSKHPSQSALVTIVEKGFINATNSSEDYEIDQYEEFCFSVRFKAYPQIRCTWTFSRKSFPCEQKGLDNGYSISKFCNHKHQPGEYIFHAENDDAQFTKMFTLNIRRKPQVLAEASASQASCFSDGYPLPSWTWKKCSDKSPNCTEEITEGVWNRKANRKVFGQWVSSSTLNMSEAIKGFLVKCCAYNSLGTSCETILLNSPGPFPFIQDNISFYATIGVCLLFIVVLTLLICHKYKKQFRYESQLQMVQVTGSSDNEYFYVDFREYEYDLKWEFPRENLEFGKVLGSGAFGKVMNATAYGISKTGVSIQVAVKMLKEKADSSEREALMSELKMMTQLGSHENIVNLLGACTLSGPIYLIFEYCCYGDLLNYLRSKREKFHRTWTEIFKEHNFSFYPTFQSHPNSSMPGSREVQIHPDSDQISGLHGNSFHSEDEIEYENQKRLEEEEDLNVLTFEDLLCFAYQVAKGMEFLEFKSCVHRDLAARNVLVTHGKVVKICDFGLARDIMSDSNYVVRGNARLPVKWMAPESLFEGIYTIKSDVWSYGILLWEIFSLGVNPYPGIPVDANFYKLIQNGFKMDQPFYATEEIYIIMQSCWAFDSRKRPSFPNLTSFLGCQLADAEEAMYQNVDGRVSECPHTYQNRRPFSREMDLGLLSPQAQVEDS

## CN(C)CCNc1ncc2c(n1)sc1nc(-c3ccc(NC(=O)Nc4cc(C(C)(C)C)on4)cc3)cn12 [Compound 97-1]
MV4-11 cell; Homo sapiens
  IC50: 0.03 nM

## CCN(CC)CCNc1ncc2c(n1)sc1nc(-c3ccc(NC(=O)Nc4cc(C(C)(C)C)on4)cc3)cn12 [Compound 97-2]
MV4-11 cell; Homo sapiens
  IC50: 0.42 nM

## CC(C)(C)c1cc(NC(=O)Nc2ccc(-c3cn4c(n3)sc3nc(NCCN5C[C@@H]6C[C@H]5CO6)ncc34)cc2)no1 [Compound 97-3]
MV4-11 cell; Homo sapiens
  IC50: 0.07 nM

## CC(C)(C)c1cc(NC(=O)Nc2ccc(-c3cn4c(n3)sc3cc(OCCN5CCOCC5)ccc34)cc2)no1 [Quizartinib, reference compound]
MV4-11 cell; Homo sapiens
  IC50: 0.56 nM
[1]
  T/C: 9%

## CC(C)(C)c1cc(NC(=O)Nc2ccc(-c3cn4c(n3)sc3nc(N5CCOCC5)ncc34)cc2)no1 [compound 8-1]
FLT3
  IC50: 19 nM

## CC(C)(C)c1cc(NC(=O)Nc2ccc(-c3cn4c(n3)sc3nc(N5CCNCC5)ncc34)cc2)no1 [compound 8-4]
MV4-11 cell; Homo sapiens
  IC50: 1.1 nM

## CC(C)(C)c1cc(NC(=O)Nc2ccc(-c3cn4c(n3)sc3nc(N5CCC(N6CCOCC6)CC5)ncc34)cc2)no1 [compound 8-6]
MV4-11 cell; Homo sapiens
  IC50: 1.26 nM

## CC(C)(C)c1cc(NC(=O)Nc2ccc(-c3cn4c(n3)sc3nc(OCCN5CCOCC5)ccc34)cc2)no1 [compound 28-1]
MV4-11 cell; Homo sapiens
  IC50: 0.7 nM

## CN(C)CCOc1ccc2c(n1)sc1nc(-c3ccc(NC(=O)Nc4cc(C(C)(C)C)on4)cc3)cn12 [compound 28-2]
MV4-11 cell; Homo sapiens
  IC50: 0.2 nM
FLT3
  IC50: 18 nM

## CC(C)(C)c1cc(NC(=O)Nc2ccc(-c3cn4c(n3)sc3nc(OCCN5CCNCC5)ccc34)cc2)no1 [compound 28-3]
MV4-11 cell; Homo sapiens
  IC50: 0.4 nM
FLT3
  IC50: 34 nM

## CC(C)(C)c1cc(NC(=O)Nc2ccc(-c3cn4c(n3)sc3nc(OCCCN5CCOCC5)ccc34)cc2)no1 [compound 28-6]
MV4-11 cell; Homo sapiens
  IC50: 0.4 nM
FLT3
  IC50: 47 nM

## CC(C)(C)c1cc(NC(=O)Nc2ccc(-c3cn4c(n3)sc3nc(OCCN5C[C@@H]6C[C@H]5CN6)ccc34)cc2)no1 [compound 28-7]
MV4-11 cell; Homo sapiens
  IC50: 0.3 nM
FLT3
  IC50: 1.2 nM

## CN1C[C@@H]2C[C@H]1CN2CCOc1ccc2c(n1)sc1nc(-c3ccc(NC(=O)Nc4cc(C(C)(C)C)on4)cc3)cn12 [compound 28-8]
MV4-11 cell; Homo sapiens
  IC50: 0.2 nM
FLT3
  IC50: 10.9 nM

## CC(C)(C)c1cc(NC(=O)Nc2ccc(-c3cn4c(n3)sc3nc(OCC5CCNCC5)ccc34)cc2)no1 [compound 28-9]
MV4-11 cell; Homo sapiens
  IC50: 0.3 nM
FLT3
  IC50: 11 nM

## CN1CCC(COc2ccc3c(n2)sc2nc(-c4ccc(NC(=O)Nc5cc(C(C)(C)C)on5)cc4)cn23)CC1 [compound 28-10]
MV4-11 cell; Homo sapiens
  IC50: 0.3 nM
FLT3
  IC50: 13 nM

## CC(C)(C)c1cc(NC(=O)Nc2ccc(-c3cn4c(n3)sc3nc(OCC5CNC5)ccc34)cc2)no1 [compound 28-11]
MV4-11 cell; Homo sapiens
  IC50: 0.84 nM

## CC(C)(C)c1cc(NC(=O)Nc2ccc(-c3cn4c(n3)sc3nc(OCC5CNCCO5)ccc34)cc2)no1 (centres unmarked) [compound 28-12]
MV4-11 cell; Homo sapiens
  IC50: 0.47 nM

## CN1CCOC(COc2ccc3c(n2)sc2nc(-c4ccc(NC(=O)Nc5cc(C(C)(C)C)on5)cc4)cn23)C1 (centres unmarked) [compound 28-13]
MV4-11 cell; Homo sapiens
  IC50: 0.3 nM

## CCN(CC)CCOc1ccc2c(n1)sc1nc(-c3ccc(NC(=O)Nc4cc(C(C)(C)C)on4)cc3)cn12 [compound 28-14]
MV4-11 cell; Homo sapiens
  IC50: 0.03 nM
FLT3
  IC50: 9.6 nM

## CC(C)(C)c1cc(NC(=O)Nc2ccc(-c3cn4c(n3)sc3nc(OCCN5C[C@@H]6C[C@H]5CO6)ccc34)cc2)no1 [compound 28-15]
MV4-11 cell; Homo sapiens
  IC50: 0.05 nM
FLT3
  IC50: 68 nM

## CC(C)(C)c1cc(NC(=O)Nc2ccc(-c3cn4c(n3)sc3nc(OCC5(N)CC5)ccc34)cc2)no1 [compound 35-1]
MV4-11 cell; Homo sapiens
  IC50: 1.4 nM
FLT3
  IC50: 38 nM

## CC(=O)NC1(COc2ccc3c(n2)sc2nc(-c4ccc(NC(=O)Nc5cc(C(C)(C)C)on5)cc4)cn23)CC1 [compound 35-2]
MV4-11 cell; Homo sapiens
  IC50: 0.52 nM

## CC(C)(C)c1cc(NC(=O)Nc2ccc(-c3cn4c(n3)sc3nc(OCC5(NS(C)(=O)=O)CC5)ccc34)cc2)no1 [compound 35-3]
MV4-11 cell; Homo sapiens
  IC50: 12.9 nM

## CC(C)(C)c1cc(NC(=O)Nc2ccc(-c3cn4c(n3)sc3nc(OC[C@@H]5CCCN5)ccc34)cc2)no1 [compound 35-4]
MV4-11 cell; Homo sapiens
  IC50: 0.9 nM

## CNC1(COc2ccc3c(n2)sc2nc(-c4ccc(NC(=O)Nc5cc(C(C)(C)C)on5)cc4)cn23)CC1 [compound 39-1]
MV4-11 cell
  IC50: 0.5 nM
FLT3
  IC50: 52 nM

## CC(C)(C)c1cc(NC(=O)Nc2ccc(-c3cn4c(n3)sc3nc(N5CCOCC5)ccc34)cc2)no1 [compound 46]
MV4-11 cell; Homo sapiens
  IC50: 0.8 nM

## CC(C)(C)c1cc(NC(=O)Nc2ccc(-c3cn4c(n3)sc3nc(NCCN5CCOCC5)ccc34)cc2)no1 [compound 53-1]
MV4-11 cell; Homo sapiens
  IC50: 0.2 nM
FLT3
  IC50: 29 nM

## CN(CCN1CCOCC1)c1ccc2c(n1)sc1nc(-c3ccc(NC(=O)Nc4cc(C(C)(C)C)on4)cc3)cn12 [compound 53-2]
MV4-11 cell; Homo sapiens
  IC50: 0.5 nM
FLT3
  IC50: 43 nM

## CC(C)(C)c1cc(NC(=O)Nc2ccc(-c3cn4c(n3)sc3nc(NCC5(N)CC5)ccc34)cc2)no1 [compound 63-1]
MV4-11 cell; Homo sapiens
  IC50: 0.96 nM

## CNC1(CNc2ccc3c(n2)sc2nc(-c4ccc(NC(=O)Nc5cc(C(C)(C)C)on5)cc4)cn23)CC1 [compound 63-2]
MV4-11 cell; Homo sapiens
  IC50: 0.58 nM

## CNC1(COc2ccc3c(c2)sc2cc(-c4ccc(NC(=O)Nc5cc(C(C)(C)C)on5)cc4)cn23)CC1 [compound 80]
MV4-11 cell; Homo sapiens
  IC50: 4.7 nM

## CN(C)CCNc1ccc2c(n1)sc1nc(-c3ccc(NC(=O)Nc4cc(C(C)(C)C)on4)cc3)cn12 [compound 89-1]
MV4-11 cell
  IC50: 0.03 nM
FLT3
  IC50: 10 nM

## CCN(CC)CCNc1ccc2c(n1)sc1nc(-c3ccc(NC(=O)Nc4cc(C(C)(C)C)on4)cc3)cn12 [compound 89-3]
MV4-11 cell
  IC50: 0.04 nM
FLT3
  IC50: 19 nM

## CC(C)(C)c1cc(NC(=O)Nc2ccc(-c3cn4c(n3)sc3nc(NCCN5C[C@@H]6C[C@H]5CO6)ccc34)cc2)no1 [compound 89-4]
MV4-11 cell
  IC50: 0.08 nM
FLT3
  IC50: 28 nM

## CC(C)(C)c1cc(NC(=O)Nc2ccc(-c3cn4c(n3)sc3nc(N5CCC(N6CCOCC6)CC5)ccc34)cc2)no1 [compound 89-5]
MV4-11 cell
  IC50: 0.29 nM
FLT3
  IC50: 34 nM
